In paper PMC12775823, “Glucosylceramide regulates depression through activating peroxisome proliferator-activated receptor gamma in dorsal striatum” (Theranostics, 2026):
Structures can show the parent of a compound that is named as a salt.

Assays:
[1] = system: D2-MSNs in dorsal striatum of D2-Ugcg^f/f mice; test: DREADD (AAV-hM3Dq) activation of D2-MSNs, c-Fos and behavioral tests; conditions: CNO 1 mg/kg, i.p.
Description: Open field test (OFT). […] Mice were gently placed in the center and allowed to explore the area for 5 min. The total distance travelled and time spent in the center (20 × 20 cm^2) were recorded using EthoVision version 7.0 software (Noldus Information Technology, Netherlands).
Elevated plus maze test (EPMT). The apparatus consisted of two open arms (30 cm × 5 cm) and two closed arms (30 cm × 5 cm × 15 cm) extending from a central platform (5 cm × 5 cm), elevated 50 cm above the floor. Mice were placed on the central platform facing one of the open arms and allowed to explore the maze for 5 min. Behavior was recorded using a video camera positioned above the maze in conjunction with Anymaze tracking software (Stoelting Co.; Wood Dale, IL, USA).
Forced swimming test (FST). Each mouse was placed individually into a water-filled cylinder maintained at 23-25 °C and allowed to swim for 6 min. The first 2 min were considered an acclimation period, and data from this period were not included in the analysis. During the remaining 4 min, the behavior of the mice was recorded using EthoVision version 7.0 software (Noldus Information Technology, Netherlands).
D2-Cre or D2-Ugcg^f/f mice were bilaterally injected with AAV-hM3Dq into the dorsal striatum (AP +0.8 mm, ML ±1.5 mm, DV -3.0 mm). Following surgery, mice were given 3 weeks to express the virus before starting behavioral tests. Prior to each behavioral test, mice received an injection of Clozapine N-oxide (CNO; 1 mg/kg, i.p.; Sigma-Aldrich, USA) 30 min before the testing session.

PPARγ = system: T1, PPARγ; test: PPARγ mRNA, protein and transcriptional activity in dorsal striatum of CRS-induced mice; assay type: in vivo
T1 construct: from tissue; host or cells: mouse dorsal striatum
Text: Dorsal striatal tissues were processed in accordance with the RNA isolation kit's instructions (RC102/RC112; Vazyme Biotech Co.,Ltd), mRNA was reverse transcribed using HiScript® III All-in-one RT SuperMix (Vazyme Biotech Co.,Ltd), and cDNA was amplified using SYBR Green (Vazyme Biotech Co.,Ltd). The 2^-ΔΔCt method was used to analyze gene expression, and the relative level of the target gene was normalized to Gapdh. The primer sequences can be found in Supplemental materials Table S1.
Brain tissues were cut into small pieces and then centrifuged at 13,000 g for 15 min at 4 °C. Supernatants were collected, and proteins concentrations were determined by BCA assay. Samples were denatured at 95 °C for 5 min and subsequently stored at -80 °C for further use. Protein samples were loaded onto 10% SDS-PAGE and transferred on PVDF membranes. After being blocked with 5% nonfat dry milk in Tris-buffered saline with 0.1% Tween-20 for 1.5 h, the PVDF membranes were incubated with corresponding primary antibodies overnight at 4 °C. Membranes were then incubated with HRP-conjugated secondary antibodies for 1 h at room temperature and measured with chemiluminescence imaging system (ChemiScope; Clinx, China).
Nuclear extracts were prepared from N2a cells using a nuclear extraction kit according to the manufacturer protocol. The binding reaction between PPARγ and PPRE was carried out at 4°C for 16 h using 3 μg of nuclear extracts. The binding activity between PPARγ and PPRE was indicated by the change of optical density (OD) at 405 nm, and an enzyme reaction was measured by HRP-conjugated antibody in complex of PPRE/ PPARγ/antibody.

GCS = system: T2, GCS; test: GCS activity in dorsal striatum of CRS-induced mice; assay type: in vivo; conditions: intra-dorsal striatal PDMP
T2 construct: from tissue; host or cells: mouse dorsal striatum

CRS-induced mice = test: Behavioral tests (OFT, EPMT, LDT, SPT, FST) in chronic restraint stress mice, intra-dorsal striatal infusion; assay type: in vivo
Description: For intracranial injection, mice were surgically implanted with sterilized guide cannulae in dorsal striatum. […] Mice were intraperitoneally injected with CNO (1 mg/kg/d) before behavioral test.
Chronic restraint stress (CRS). For the CRS protocol, male C57BL/6J mice (8-10 weeks old) were obtained from Charles River Laboratories (Beijing, China). Mice were individually placed into well-ventilated 50 mL conical restraint tube (suitable for mice weighing 20-25 g) with multiple holes for 4 h daily between 10:00 AM and 2:00 PM to minimize circadian rhythm variations. The restraint stress procedure was conducted for 14 consecutive days. Then, all behavioral test were performed between 10:00 AM and 18:00 PM.
(§1) Elevated plus maze test (EPMT).
(§2) Light-dark Transition test (LDT).
(§3) Sucrose preference test (SPT).
(§4) Forced swimming test (FST).

D2-Pparg^f/f mice = test: Behavioral tests in D2-Pparg f/f mice after intra-dorsal striatal microinfusion; assay type: in vivo; conditions: UNC 10 μM, 1 μL/side
Description: For intracranial injection, mice were surgically implanted with sterilized guide cannulae in dorsal striatum. Intra-dorsal striatal injection of PDMP (100 μM, 1 μL/injection), pioglitazone (100 μM, 1 μL/injection), UNC (10 μM, 1 μL/injection) was performed 30 min before behavioral test. Mice were intraperitoneally injected with CNO (1 mg/kg/d) before behavioral test.
as §1, §2, §3, §4

D2-Ugcg^f/f mice = test: Behavioral tests in D2-Ugcg f/f mice after intra-dorsal striatal microinfusion; assay type: in vivo; conditions: pioglitazone 1 μM, 1 μL per side
[2] = LC-MS of GlcCer levels in dorsal striatum of CRS-induced mice; assay type: in vivo; conditions: intra-dorsal striatum infusion of pioglitazone, GlcCer or combination
Description: The procedure for the extraction of sphingolipids was established according to the LIPID MAPS protocol with modifications. Briefly, dorsal striatal tissues were added 0.5 mL of MeOH, 0.25 mL of CHCl3 and 7.5 μL of internal standards cocktail (2.5 μM). For sphingolipidomics, 5 μL of internal standards mixture (LM6002, Avanti polar lipids) was added. The mixture was then ultrasonicated for 45 s at room temperature and incubation at 48°C overnight. To avoid potentially interfering glycerolipids, 75 μL of KOH in MeOH (1M) was added, followed by incubation in a heat block at 200 rpm for 2 h at 37 °C. After neutralization, a four-step extraction process was performed to obtain SPL extract for analysis. The supernatant was transferred to a new Eppendorf tube and the resides were added l mL of MeOH and 2 mL of CHCl3, followed by centrifugation at 3800 rpm for 8 min. […] Sphingolipidomics were measured with ultra-high-performance liquid chromatography (UPLC) coupled with hybrid Quadrupole-Orbitrap high resolution mass spectrometry (Q-Exactive-HRMS). […] For […] quantitation, brain tissues were quantified by UPLC-MS/MS using a Q-Exactive-HRMS with UPLC. […] Quantification of […] with various fatty acid chain lengths were achieved using the calibration curve of each GlcCer species with closest number of chain length. […]

[3] = system: depression and bipolar disorder; parameters: method as in PMID 30699881; conditions: clinical; ref [10]; cited from earlier work
PPARγ target genes = test: qRT-PCR of PPARγ target genes in PPARγ-overexpressing N2a cells; assay type: cell-based; conditions: 0.1, 1 and 10 μM
[4] = D2-Ugcg^f/f mice with AAV-hM3Dq
[5] = CRS mice, PDMP 100 μM, 1 μL/side

## C[N+]1([O-])CCN(C2=Nc3cc(Cl)ccc3Nc3ccccc32)CC1 [CNO, Clozapine-N-oxide]
[1]; AAV-hM3Dq-injected mice
  expression of c-Fos: significantly increased
[1]; [4]
  immobility time in the FST: lower
  time in the center area in the OFT: more time
  time in the light room in the LDT: more time
  time in the open arms in the EPMT: more time

## CCCCCCCCCC(=O)N[C@@H](CN1CCOCC1)[C@@H](O)c1ccccc1.Cl [PDMP, (-)-L-threo-PDMP hydrochloride]
PPARγ; PDMP treatment
  PPARγ activity in the dorsal striatum: significantly enhanced
  PPARγ mRNA or protein expression: did not alter
GCS
  GCS activity in the dorsal striatum: significantly enhanced
CRS-induced mice; [5]
  immobility time in the FST: reduced
  sucrose preference in the SPT: restored
  time spent in light area in the LDT: increased
  time spent in open arms in the EPMT: increased
  time spent in the center area in the OFT: increased
CRS-induced mice; PDMP 100 μM, 1 μL/side, intra-dorsal striatum
  anxiety- and depression-like behaviors following CRS: significantly ameliorated

## Clc1cccc(N2CCN(CCCOc3ccc4scnc4c3)CC2)c1Cl [UNC, UNC9995]
D2-Pparg^f/f mice
  reductions in the OFT, EPMT, LDT, SPT, and FST: effectively reversed

## CCc1ccc(CCOc2ccc(CC3SC(=O)NC3=O)cc2)nc1 (centres unmarked) [pioglitazone, Pioglitazone hydrochloride]
PPARγ; intra-dorsal striatum pioglitazone, GlcCer or combination
  PPARγ mRNA or protein expression: neither pioglitazone, GlcCer, nor their combination altered
D2-Ugcg^f/f mice
  anxiety- and depression-like behaviors in the OFT, EPMT, LDT, SPT, and FST: effectively reversed
[2]
  GlcCer levels in the dorsal striatum (LC-MS): did not alter
[3]
  symptoms of depression and bipolar disorder: proven effective
CRS-induced mice; CRS mice, administration of GlcCer, pioglitazone or combined
  stress-induced depression-like behaviors (overall): reverses
PPARγ target genes
  expression of Adipoq and Leptin: robustly upregulated
  expression of Angptl4: significantly increased
  expression of adipogenesis-related genes (Srebp-1c, Adrp, Fabp4, Fasn, Cd36): strongly induced
